Experiment: Model study: degradation of 5-CQA and formation of its ethylester in 75% ethanolic solution (LC/MS-DAD)
Format: physicochemical
Details: 75% ethanol
Experimental: During the experiment 5-CQA was stored in the presence of ethanol (75% ethanolic solution) by varying the following parameters pH, temperature and time.
The process was conducted under the following conditions using 5-CQA esterification as the model.
For each trial 10 mg of 5-CQA were dissolved in 40 mL of a 75% ethanolic solution. • pH studies: The pH was adjusted to pH 1, pH 2.7 and pH 4 with hydrochloric acid (32%) and to pH 12 by using NaOH solution (4 N) and all samples were kept in a lab oven at a temperature of 80° C. for 2 hours. • Temperature studies: CQA solutions were adjusted to pH 1 with hydrochloric acid (32%) and kept for 2 hours either at room temperature, 50° C. or 80° C. in a lab oven. • Time studies: 5-CQA solutions were adjusted to pH 1 and kept at room temperature or 50° C. for 1 h, 2 h, 3 h and 36 h (RT only). • System: The analysis was performed on a LC-DAD-MS system using LCQ Deca mass spectrometer (Thermo Finnigan), with a DAD detector (Thermo Finnigan) and a Rheos HPLC system (Thermo Finnigan). • Sample Preparation: For each parameter an aliquot of the solution was diluted 1:10 and directly used for LC/MS-DAD analysis. • HPLC Method: The separation was performed at ambient temperature on a Zorbax Eclipse C18 column, 5 μm, 150*3 mm (Agilent). A binary gradient of A/B (A: 0.1% formic acid, B: methanol) was applied. • MS parameters: The Mass spectrometer used is the LCQ-Deca operated in FullScan and data dependant MS/MS mode (m/z 100-1000) for compound identification.

ester detectable as compared to the native 5-CQA (pH 1, 50° C., 2 h): Up to 40% | ester formed (pH 1, 50° C., period corresponding to desorption duration of up-scaled protocol (within first 3 h)): 30% | 5-CQA transformed into its ethylester (pH 1, RT, 2 h): only a small amount | ester formed (pH 1, room temperature, 3 h): 3% | ester formed (pH 1, room temperature, 36 h): 14% | 5-CQA esterification (pH 2.7, 80° C., 2 h): significantly reduced | degradation of 5-CQA (pH 4, 80° C., 2 h): almost not degraded
Compound: O=C(/C=C/c1ccc(O)c(O)c1)O[C@@H]1C[C@@](O)(C(=O)O)C[C@@H](O)[C@@H]1O [5-CQA, 5-caffeoyl quinic acid]
ester as compared to 5-CQA (pH 1, 80° C., 2 h): same amounts of the ester as compared to 5-CQA | transformation of 5-CQA into its ethylester (pH 1, 80° C., 2 h): rapid transformation of 5-CQA into its ester | degradation of 5-CQA (pH 12, 80° C., 2 h): hydrolysis of 5-CQA yielding caffeic and quinic acid

From patent publication US20170303557A1, “PURIFICATION OF POLYPHENOLS” (NESTEC S.A., priority 2014, published 2017)
